Laboratory results from the supplement of paper PMC10307832.

Assays:
Assay in all cases: relative viability (nuclei count vs DMSO), 5 days (fraction); higher = more cells survive
[1] = compound: CN(C)C/C=C/C(=O)Nc1cc2c(Nc3ccc(F)c(Cl)c3)ncnc2cc1O[C@H]1CCOC1 [Afatinib] + CCNC(=O)c1noc(-c2cc(C(C)C)c(O)cc2O)c1-c1ccc(CN2CCOCC2)cc1 [Luminespib] (partner 0.01 µM)
In short: (§1)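 After 5 days of treatment, lung cancer cells in 1536-well plates were fixed and stained in a single step (final 0.05% Triton X-100, 1% formaldehyde, 1 ug/ml Hoechst) and their nuclei counted on 4× images. Treatment had been applied by pin tool the day after seeding as one drug alone or as a fixed anchor-drug dose with five library-drug doses (not always all listed) in √10 steps. Relative viability is the nuclei count of treated wells divided by that of vehicle wells, and values are medians of duplicate plates.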

[2] = compound: CN(C)C/C=C/C(=O)Nc1cc2c(Nc3ccc(F)c(Cl)c3)ncnc2cc1O[C@H]1CCOC1 [Afatinib] + CS(=O)(=O)CCNCc1ccc(-c2ccc3ncnc(Nc4ccc(OCc5cccc(F)c5)c(Cl)c4)c3c2)o1 [Lapatinib] (partner 2 µM)
In short: as §1

[3] = compound: CN(C)C/C=C/C(=O)Nc1cc2c(Nc3ccc(F)c(Cl)c3)ncnc2cc1O[C@H]1CCOC1 [Afatinib] + Nc1ncn([C@H]2C[C@H](O)[C@@H](CO)O2)c(=O)n1 [Decitabine] (partner 2 µM)
In short: as §1

[4] = compound: CN(C)C/C=C/C(=O)Nc1cc2c(Nc3ccc(F)c(Cl)c3)ncnc2cc1O[C@H]1CCOC1 [Afatinib] + O=C(c1cc(Cc2n[nH]c(=O)c3ccccc23)ccc1F)N1CCN(C(=O)C2CC2)CC1 [Olaparib] (partner 8 µM)
In short: as §1

NCI-H838
relative viability ([1]; first compound 0.005 µM): 0.346
relative viability ([1]; first compound 0.01581 µM): 0.291
relative viability ([1]; first compound 0.05 µM): 0.272
relative viability ([1]; first compound 0.1581 µM): 0.217
relative viability ([1]; first compound 0.5 µM): 0.248
relative viability ([2]; first compound 0.005 µM): 0.986
relative viability ([2]; first compound 0.01581 µM): 0.953
relative viability ([2]; first compound 0.05 µM): 1.07
relative viability ([2]; first compound 0.1581 µM): 1.08
relative viability ([2]; first compound 0.5 µM): 1.06
relative viability ([3]; first compound 0.005 µM): 0.496
relative viability ([3]; first compound 0.01581 µM): 0.445
relative viability ([3]; first compound 0.05 µM): 0.481
relative viability ([3]; first compound 0.1581 µM): 0.451
relative viability ([3]; first compound 0.5 µM): 0.461
relative viability ([4]; first compound 0.005 µM): 0.803
relative viability ([4]; first compound 0.01581 µM): 0.723
relative viability ([4]; first compound 0.05 µM): 0.819
relative viability ([4]; first compound 0.1581 µM): 0.757
relative viability ([4]; first compound 0.5 µM): 0.815

SW 1573
relative viability ([1]; first compound 0.005 µM): 0.141
relative viability ([1]; first compound 0.01581 µM): 0.262
relative viability ([1]; first compound 0.05 µM): 0.247
relative viability ([1]; first compound 0.1581 µM): 0.214
relative viability ([1]; first compound 0.5 µM): 0.214
relative viability ([2]; first compound 0.005 µM): 1.03
relative viability ([2]; first compound 0.01581 µM): 1.09
relative viability ([2]; first compound 0.05 µM): 1.14
relative viability ([2]; first compound 0.1581 µM): 1.07
relative viability ([2]; first compound 0.5 µM): 1.27
relative viability ([3]; first compound 0.005 µM): 0.434
relative viability ([3]; first compound 0.01581 µM): 0.422
relative viability ([3]; first compound 0.05 µM): 0.542
relative viability ([3]; first compound 0.1581 µM): 0.497
relative viability ([3]; first compound 0.5 µM): 0.528
relative viability ([4]; first compound 0.005 µM): 0.624
relative viability ([4]; first compound 0.01581 µM): 0.485
relative viability ([4]; first compound 0.05 µM): 0.486
relative viability ([4]; first compound 0.1581 µM): 0.421
relative viability ([4]; first compound 0.5 µM): 0.408

PC-14
relative viability ([1]; first compound 0.005 µM): 0.152
relative viability ([1]; first compound 0.01581 µM): 0.115
relative viability ([1]; first compound 0.05 µM): 0.19
relative viability ([1]; first compound 0.1581 µM): 0.126
relative viability ([1]; first compound 0.5 µM): 0.144
relative viability ([2]; first compound 0.005 µM): 0.295
relative viability ([2]; first compound 0.01581 µM): 0.222
relative viability ([2]; first compound 0.05 µM): 0.258
relative viability ([2]; first compound 0.1581 µM): 0.301
relative viability ([2]; first compound 0.5 µM): 0.288
relative viability ([3]; first compound 0.005 µM): 0.14
relative viability ([3]; first compound 0.01581 µM): 0.17
relative viability ([3]; first compound 0.05 µM): 0.137
relative viability ([3]; first compound 0.1581 µM): 0.171
relative viability ([3]; first compound 0.5 µM): 0.218
relative viability ([4]; first compound 0.005 µM): 0.193
relative viability ([4]; first compound 0.01581 µM): 0.19
relative viability ([4]; first compound 0.05 µM): 0.139
relative viability ([4]; first compound 0.1581 µM): 0.12
relative viability ([4]; first compound 0.5 µM): 0.134

LK-2
relative viability ([1]; first compound 0.005 µM): 0.191
relative viability ([1]; first compound 0.01581 µM): 0.185
relative viability ([1]; first compound 0.05 µM): 0.185
relative viability ([1]; first compound 0.1581 µM): 0.188
relative viability ([1]; first compound 0.5 µM): 0.192
relative viability ([2]; first compound 0.005 µM): 1.13
relative viability ([2]; first compound 0.01581 µM): 0.787
relative viability ([2]; first compound 0.05 µM): 0.846
relative viability ([2]; first compound 0.1581 µM): 0.851
relative viability ([2]; first compound 0.5 µM): 1.01
relative viability ([3]; first compound 0.005 µM): 0.41
relative viability ([3]; first compound 0.01581 µM): 0.258
relative viability ([3]; first compound 0.05 µM): 0.288
relative viability ([3]; first compound 0.1581 µM): 0.328
relative viability ([3]; first compound 0.5 µM): 0.301
relative viability ([4]; first compound 0.005 µM): 0.705
relative viability ([4]; first compound 0.01581 µM): 0.591
relative viability ([4]; first compound 0.05 µM): 0.725
relative viability ([4]; first compound 0.1581 µM): 0.766
relative viability ([4]; first compound 0.5 µM): 0.79

HCC-78
relative viability ([2]; first compound 0.005 µM): 0.838
relative viability ([2]; first compound 0.01581 µM): 0.661
relative viability ([2]; first compound 0.05 µM): 0.844
relative viability ([2]; first compound 0.1581 µM): 0.659
relative viability ([2]; first compound 0.5 µM): 0.883
relative viability ([3]; first compound 0.005 µM): 0.726
relative viability ([3]; first compound 0.01581 µM): 0.607
relative viability ([3]; first compound 0.05 µM): 0.616
relative viability ([3]; first compound 0.1581 µM): 0.635
relative viability ([3]; first compound 0.5 µM): 0.651
relative viability ([4]; first compound 0.005 µM): 0.792
relative viability ([4]; first compound 0.01581 µM): 0.932
relative viability ([4]; first compound 0.05 µM): 0.852
relative viability ([4]; first compound 0.1581 µM): 0.717
relative viability ([4]; first compound 0.5 µM): 0.667

HCC-366
relative viability ([2]; first compound 0.005 µM): 1.03
relative viability ([2]; first compound 0.01581 µM): 1.06
relative viability ([2]; first compound 0.05 µM): 1.03
relative viability ([2]; first compound 0.1581 µM): 1.05
relative viability ([2]; first compound 0.5 µM): 1.02
relative viability ([3]; first compound 0.005 µM): 0.293
relative viability ([3]; first compound 0.01581 µM): 0.407
relative viability ([3]; first compound 0.05 µM): 0.383
relative viability ([3]; first compound 0.1581 µM): 0.324
relative viability ([3]; first compound 0.5 µM): 0.34
relative viability ([4]; first compound 0.005 µM): 0.299
relative viability ([4]; first compound 0.01581 µM): 0.38
relative viability ([4]; first compound 0.05 µM): 0.391
relative viability ([4]; first compound 0.1581 µM): 0.3
relative viability ([4]; first compound 0.5 µM): 0.367

LCLC-103H
relative viability ([1]; first compound 0.005 µM): 0.779
relative viability ([1]; first compound 0.01581 µM): 1.04
relative viability ([1]; first compound 0.05 µM): 0.968
relative viability ([1]; first compound 0.1581 µM): 0.784
relative viability ([1]; first compound 0.5 µM): 0.917
relative viability ([3]; first compound 0.005 µM): 0.714
relative viability ([3]; first compound 0.01581 µM): 0.774
relative viability ([3]; first compound 0.05 µM): 0.727
relative viability ([3]; first compound 0.1581 µM): 0.704
relative viability ([3]; first compound 0.5 µM): 0.718
relative viability ([4]; first compound 0.005 µM): 0.743
relative viability ([4]; first compound 0.01581 µM): 0.744
relative viability ([4]; first compound 0.05 µM): 0.764
relative viability ([4]; first compound 0.1581 µM): 0.682
relative viability ([4]; first compound 0.5 µM): 0.773

NCI-H1563
relative viability ([1]; first compound 0.005 µM): 0.489
relative viability ([1]; first compound 0.01581 µM): 0.558
relative viability ([1]; first compound 0.05 µM): 0.552
relative viability ([1]; first compound 0.1581 µM): 0.501
relative viability ([1]; first compound 0.5 µM): 0.515
relative viability ([2]; first compound 0.005 µM): 0.965
relative viability ([2]; first compound 0.01581 µM): 0.874
relative viability ([2]; first compound 0.05 µM): 1.08
relative viability ([2]; first compound 0.1581 µM): 1.04
relative viability ([2]; first compound 0.5 µM): 0.854

EBC-1
relative viability ([2]; first compound 0.005 µM): 0.246
relative viability ([2]; first compound 0.01581 µM): 0.196
relative viability ([2]; first compound 0.05 µM): 0.198
relative viability ([2]; first compound 0.1581 µM): 0.195
relative viability ([2]; first compound 0.5 µM): 0.212
relative viability ([4]; first compound 0.005 µM): 0.714
relative viability ([4]; first compound 0.01581 µM): 0.76
relative viability ([4]; first compound 0.05 µM): 0.745
relative viability ([4]; first compound 0.1581 µM): 0.676
relative viability ([4]; first compound 0.5 µM): 0.734

Calu-6
relative viability ([2]; first compound 0.005 µM): 1.15
relative viability ([2]; first compound 0.01581 µM): 1.12
relative viability ([2]; first compound 0.05 µM): 1.08
relative viability ([2]; first compound 0.1581 µM): 1.09
relative viability ([2]; first compound 0.5 µM): 1.12
relative viability ([4]; first compound 0.005 µM): 0.565
relative viability ([4]; first compound 0.01581 µM): 0.565
relative viability ([4]; first compound 0.05 µM): 0.607
relative viability ([4]; first compound 0.1581 µM): 0.573
relative viability ([4]; first compound 0.5 µM): 0.545
